17 compounds from patent US11542249B2, “BTK inhibitor compounds” (Eli Lilly and Company, priority 2017, dated 2023) can be followed below.

The subject of assay [1] is activated B cells in human whole blood (CD69). Description: Human Whole Blood CD69 in vitro assay (B cell activation, flow cytometry). It counts as cell-based. Particulars: IC50 value ± standard deviation, anti-human-IgD-Dextran stimulation, read-out: HWB CD69 Rel IC50. The method, then:
Human Whole Blood CD69 in Vitro Assay:
The HWB CD69 assay measures activated B cells in human whole blood using a flow cytometer. Compounds are diluted and added to assay plates with a Labcyte ECHO® 555 liquid handler. Compounds are tested in 10 point dose response curves (20 μM-0.001 μM) in 96-well v-bottom plates with a maximum DMSO concentration of 0.2%. Fresh blood from individual healthy volunteer is mixed with HEPES (0.5 ml HEPES added per 10 ml blood) and 100 μl/well is added to compound plates. The plates are sealed and incubated in a 37° C. incubator for 3 h. Anti-human-IgD-Dextran is added to each well to give a final concentration of 100 ng/ml, mixed, and put back into the incubator. After 1 h, the cells are washed with cold FACS buffer and transferred to a deep well plate. The cells are incubated with anti-human CD69-PE (BIOLEGEND®, clone FN50) and anti-human CD19-APC (BIOLEGEND®, clone HIB19) antibodies on ice for 20 min. The cells are washed and incubated in eBioscience™ 1-step Fix/Lyse solution (10×) at RT to lyse the red blood cells and fix the other cells. The white cells are pelleted and washed in FACS buffer and then brought up in read buffer. The suspended cells are transferred to 96-well round bottom plates and read on an IntelliCyt iQue® Screener Plus flow cytometer. From the SSC (Side Scatter Channel) vs FSC (Forward Scatter Channel) graph, the lymphocytes are identified. Lymphocytes are identified with gated on positive CD19 marker for quantify CD69 (a marker of activated B lymphocytes) MFI (mean fluorescent intensity/cell). The signal ratio is converted to percent inhibition using the following equation: % Inhibition=100−[(Test Compound−Median Min)/(Median Max−Median Min)×100].
(§1) The following Table 1 and Table 2 describes the relative IC50 data vs. human BTK, human EGFR, and human whole blood CD69.

In assay [2] the target is human EGFR (Homo sapiens (Human), UniProt P00533). Description: EGFR LANTHASCREEN Eu Kinase Binding Assay. Particulars: IC50 value ± standard deviation; truncated GST-labeled EGFR, kinase tracer 199; read-out: hEGFR Rel IC50. The method, then: (§2) BTK and EGFR in Vitro Assays:
(§3) The BTK and EGFR biochemical assays utilize LANTHASCREEN® Eu Kinase Binding Assays from Thermo Fisher Scientific, measuring the binding of the kinase with a […] tracer. The assay buffer consists of 50 mM HEPES pH 7.5, 0.01% BRU™-35, 10 mM MgCl2, 1 mM EGTA, and 1 mM DTT. The test compounds are diluted and added to the assay plate with a Labcyte ECHO® 555 liquid handler. The compounds are tested in 10 point dose response curves (100 μM-0.005 μM) with a maximum DMSO concentration of 1%. The assays are performed in 20 μL in low-volume 384-well white proxiplates. For the BTK assay, the concentration of full-length His-labeled BTK in the assay is 5 nM, the Eu-anti-His antibody is 2 nM, and the kinase tracer 236 is 60 nM. For the EGFR assay, the concentration of truncated (amino acids 668-1210) GST-labeled EGFR is 5 nM, the Eu-anti-GST antibody is 2 nM, and the kinase tracer 199 is 10 nM. The components of the assay (compound, enzyme/antibody, tracer) are assembled and incubated for 30 min prior to being read on a Perkin-Elmer EnVision with excitation at 340 nm, tracer emission at 665 nm, and antibody emission at 615 nm. The signal ratio is converted to percent inhibition using the following equation: % Inhibition=100−[(Test Compound−Median Minimum)/(Median Maximum−Median Minimum)×100].

Assay [3] concerns the target human BTK (Homo sapiens (Human), UniProt Q06187). Description: BTK LANTHASCREEN Eu Kinase Binding Assay. Conditions: IC50 value ± standard deviation; full-length His-labeled BTK, kinase tracer 236; read-out: hBTK Rel IC50. The method, then:
as §2, §3, §1
Background: Time-resolved FRET reads energy transfer from a long-lived donor to a nearby acceptor.

Each structure is given as a SMILES string. A value given as a limit tells only on which side of the number the result lay.

Chain of human EGFR (P00533 668-1210): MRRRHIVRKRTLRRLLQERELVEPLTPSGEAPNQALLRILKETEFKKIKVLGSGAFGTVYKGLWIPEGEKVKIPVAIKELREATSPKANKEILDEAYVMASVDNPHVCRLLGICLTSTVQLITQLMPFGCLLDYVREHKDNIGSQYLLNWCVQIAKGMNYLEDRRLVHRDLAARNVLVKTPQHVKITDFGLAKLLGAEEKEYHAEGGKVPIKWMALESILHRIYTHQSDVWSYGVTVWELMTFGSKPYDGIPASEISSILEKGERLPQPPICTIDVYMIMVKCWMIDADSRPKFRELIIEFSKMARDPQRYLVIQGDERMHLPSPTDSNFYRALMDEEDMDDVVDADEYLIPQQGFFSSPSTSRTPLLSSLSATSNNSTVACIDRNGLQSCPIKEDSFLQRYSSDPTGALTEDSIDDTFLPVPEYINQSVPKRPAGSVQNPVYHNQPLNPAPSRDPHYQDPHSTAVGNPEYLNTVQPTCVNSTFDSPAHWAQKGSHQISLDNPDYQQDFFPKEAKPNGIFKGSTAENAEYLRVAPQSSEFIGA
Chain of human BTK (Q06187 whole entry): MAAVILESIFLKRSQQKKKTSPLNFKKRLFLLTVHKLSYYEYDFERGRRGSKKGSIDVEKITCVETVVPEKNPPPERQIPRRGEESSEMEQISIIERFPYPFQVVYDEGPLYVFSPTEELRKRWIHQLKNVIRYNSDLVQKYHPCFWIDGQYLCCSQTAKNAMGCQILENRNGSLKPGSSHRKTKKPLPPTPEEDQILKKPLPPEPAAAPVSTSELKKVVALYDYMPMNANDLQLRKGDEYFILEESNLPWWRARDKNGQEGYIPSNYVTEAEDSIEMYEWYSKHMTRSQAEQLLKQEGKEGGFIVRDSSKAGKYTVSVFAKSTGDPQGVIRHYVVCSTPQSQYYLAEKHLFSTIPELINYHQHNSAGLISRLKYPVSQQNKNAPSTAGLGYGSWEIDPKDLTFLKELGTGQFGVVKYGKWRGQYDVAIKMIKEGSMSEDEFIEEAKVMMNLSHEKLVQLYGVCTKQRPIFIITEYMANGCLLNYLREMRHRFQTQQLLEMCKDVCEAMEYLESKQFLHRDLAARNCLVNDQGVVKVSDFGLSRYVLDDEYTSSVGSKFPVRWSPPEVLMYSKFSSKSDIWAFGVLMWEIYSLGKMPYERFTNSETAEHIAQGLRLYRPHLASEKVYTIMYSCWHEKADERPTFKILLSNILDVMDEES

The term IC50 denotes the concentration at which inhibition is half-maximal. `C=CC(=O)N1CC(Nc2cncc(-c3cnc(Oc4cccc(C(F)(F)F)c4)nc3)n2)C1` [Example 26, 1-[3-[[6-[2-[3-(trifluoromethyl)phenoxy]pyrimidin-5-yl]pyrazin-2-yl]amino]azetidin-1-yl]prop-2-en-1-one]: the IC50 in assay [1] was determined as 490 ± 255 nM; in assay [2], 4030 ± 1920 nM; in assay [3] it was 30.2 ± 4.32 nM.

Take `C=CC(=O)N1CC(Nc2cncc(-c3cnc(Oc4ccccc4)nc3)n2)C1` [Example 28, 1-[3-[[6-(2-phenoxypyrimidin-5-yl)pyrazin-2-yl]amino]azetidin-1-yl]prop-2-en-1-one]: the IC50 in assay [1] came to 742 ± 323 nM; in assay [2], 1470 ± 209 nM; in assay [3], 42.9 ± 5.09 nM.

Take `C=CC(=O)N1CC(C)(Nc2cncc(-c3cnc(Oc4cccc(Cl)c4)nc3)n2)C1` [Example 29, 1-[3-[[6-[2-(3-chlorophenoxy)pyrimidin-5-yl]pyrazin-2-yl]amino]-3-methyl-azetidin-1-yl]prop-2-en-1-one]: the figures for the IC50 in assay [1], in assay [2] and in assay [3] were 584 ± 372 nM, 3470 ± 911 nM and 17.7 ± 1.35 nM, respectively.

With `C=CC(=O)N1CC(Nc2cncc(-c3cnc(Oc4cc(F)cc(F)c4)nc3)n2)C1` [Example 30, 1-[3-[[6-[2-(3,5-difluorophenoxy)pyrimidin-5-yl]pyrazin-2-yl]amino]azetidin-1-yl]prop-2-en-1-one], the concentration for half-maximal inhibition (IC50) in assay [1] amounted to 815 ± 110 nM; in assay [2], 1080 ± 229 nM; in assay [3] it was 43.2 ± 11.9 nM.

Take `C=CC(=O)N1CC[C@H](Nc2cncc(-c3cnc(Nc4cccc(Cl)c4)nc3)n2)C1` [Example 34, 1-[(3S)-3-[[6-[2-(3-chloroanilino)pyrimidin-5-yl]pyrazin-2-yl]amino]pyrrolidin-1-yl]prop-2-en-1-one]: the IC50 is 130 ± 44.7 nM in assay [1], 639 ± 256 nM in assay [2] and 18.3 nM in assay [3].

As for `C=CC(=O)N1CC(Nc2cncc(-c3cnc(Nc4ccc(F)c(Cl)c4)nc3)n2)C1` [Example 35, 1-[3-[[6-[2-(3-chloro-4-fluoro-anilino)pyrimidin-5-yl]pyrazin-2-yl]amino]azetidin-1-yl]prop-2-en-1-one], the half-inhibitory concentration (IC50) was 107 ± 45.4 nM in assay [1], 37.3 ± 26.1 nM in assay [2] and < 5 nM in assay [3].

Regarding `C=CC(=O)N1CC[C@H](Nc2cncc(-c3cnc(Nc4ccccc4OC(F)(F)F)nc3)n2)C1` [Example 36, 1-[(3S)-3-[[6-[2-[2-(trifluoromethoxy)anilino]pyrimidin-5-yl]pyrazin-2-yl]amino]pyrrolidin-1-yl]prop-2-en-1-one], the IC50 in assay [1] was found to be 161 ± 71 nM; in assay [2] it was 15200 ± 654 nM; in assay [3] it was 6.72 ± 1.7 nM.

Turning to `C=CC(=O)N1CC(Nc2cncc(-c3cnc(Nc4cccc(OC(F)(F)F)c4)nc3)n2)C1` [Example 37, 1-[3-[[6-[2-[3-(trifluoromethoxy)anilino]pyrimidin-5-yl]pyrazin-2-yl]amino]azetidin-1-yl]prop-2-en-1-one], the results for the IC50 in assay [1], in assay [2] and in assay [3] were 136 ± 66.8 nM, 306 ± 33.8 nM and < 5 nM, respectively.

With `C=CC(=O)N1CCC(Nc2cncc(-c3cnc(Oc4cccc(OC(F)F)c4)nc3)n2)CC1` [Example 38, 1-[4-[[6-[2-[3-(difluoromethoxy)phenoxy]pyrimidin-5-yl]pyrazin-2-yl]amino]-1-piperidyl]prop-2-en-1-one], the concentration for half-maximal inhibition (IC50) in assay [1] turned out to be 66.6 ± 19.9 nM; in assay [2], 908 ± 546 nM; in assay [3], 6.89 ± 0.835 nM.

For the compound `C=CC(=O)N1CC[C@H](Nc2cncc(-c3cnc(Nc4cccc(OC(F)F)c4)nc3)n2)C1` [Example 39, 1-[(3S)-3-[[6-[2-[3-(difluoromethoxy)anilino]pyrimidin-5-yl]pyrazin-2-yl]amino]pyrrolidin-1-yl]prop-2-en-1-one], the IC50 was determined as 103 ± 60.6 nM in assay [1], 1460 ± 200 nM in assay [2] and 5.6 nM in assay [3].

Regarding `C=CC(=O)N1CC(Nc2cncc(-c3cnc(Nc4cccc(C)n4)nc3)n2)C1` [Example 40, 1-[3-[[6-[2-[(6-methyl-2-pyridyl)amino]pyrimidin-5-yl]pyrazin-2-yl]amino]azetidin-1-yl]prop-2-en-1-one], the IC50 in assay [1] was 144 ± 53.4 nM; in assay [2] it was 54.9 ± 15.4 nM; in assay [3] it was 5.58 ± 0.182 nM.

`C=CC(=O)N1CC(Nc2cncc(-c3cnc(Oc4ccc(Cl)cc4)nc3)n2)C1` [Example 41, 1-[3-[[6-[2-(4-chlorophenoxy)pyrimidin-5-yl]pyrazin-2-yl]amino]azetidin-1-yl]prop-2-en-1-one]: the results for the half-maximal inhibitory concentration (IC50) in assay [1], in assay [2] and in assay [3] were 2160 ± 420 nM, 2110 ± 487 nM and 96.8 ± 15.6 nM, respectively.

Turning to `C=CC(=O)N1CC(Nc2cncc(-c3cnc(Oc4cccc(OC)c4)nc3)n2)C1` [Example 42, 1-[3-[[6-[2-(3-methoxyphenoxy)pyrimidin-5-yl]pyrazin-2-yl]amino]azetidin-1-yl]prop-2-en-1-one], the IC50 in assay [1] is 226 ± 53 nM; in assay [2], 2820 ± 492 nM; in assay [3] it was 19.4 ± 1.67 nM.

Turning to `C=CC(=O)N1CC(Nc2cncc(-c3cnc(Nc4ccccc4OC(F)(F)F)nc3)n2)C1` [Example 43, 1-[3-[[6-[2-[2-(trifluoromethoxy)anilino]pyrimidin-5-yl]pyrazin-2-yl]amino]azetidin-1-yl]prop-2-en-1-one], the half-inhibitory concentration (IC50) is 105 ± 43 nM in assay [1], 676 ± 23 nM in assay [2] and < 5 nM in assay [3].

Turning to `CN(C)C/C=C/C(=O)N1CCC(Nc2cncc(-c3cnc(Oc4cccc(Cl)c4)nc3)n2)CC1` [Example 45, (E)-1-[4-[[6-[2-(3-chlorophenoxy)pyrimidin-5-yl]pyrazin-2-yl]amino]-1-piperidyl]-4-(dimethylamino)but-2-en-1-one], the 50% inhibitory concentration (IC50) in assay [1] is 466 ± 159 nM; in assay [2], 52600 ± 28800 nM; in assay [3] it was 43.8 ± 4.17 nM.

In the case of `CN(C)C/C=C/C(=O)N1CCC(Nc2cncc(-c3cnc(Nc4cccc(Cl)c4)nc3)n2)CC1` [Example 46, (E)-1-[4-[[6-[2-(3-chloroanilino)pyrimidin-5-yl]pyrazin-2-yl]amino]-1-piperidyl]-4-(dimethylamino)but-2-en-1-one], the IC50 was 157 ± 52.3 nM in assay [1], 6040 ± 2090 nM in assay [2] and < 5 nM in assay [3].

For the compound `C=CC(=O)N1CCC(Nc2cncc(-c3cnc(Nc4cccc(Cl)c4)nc3)c2)CC1C` (stereo not drawn) [Example 47, 1-[4-[[5-[2-(3-chloroanilino)pyrimidin-5-yl]-3-pyridyl]amino]-2-methyl-1-piperidyl]prop-2-en-1-one], the IC50 amounted to 355 ± 39 nM in assay [1], 6100 nM in assay [2] and 6.7 nM in assay [3].
